Reference: PubChem BioAssay (NCI)
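GI50 = concentration required for 50% inhibition of growth. TGI is the concentration that stops growth completely.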

What was measured:
Assay in all cases: NCI anticancer screen, dose series, 384-well format
NCI-H460 NSCLC = tested on: NCI-H460 NSCLC
UACC-62 melanoma = tested on: UACC-62 melanoma
MOLT-4 leukemia = tested on: MOLT-4 leukemia
OVCAR-4 ovarian = tested on: OVCAR-4 ovarian
TK-10 renal = tested on: TK-10 renal
NCI/ADR-RES ovarian = tested on: NCI/ADR-RES ovarian
U251 glioblastoma = tested on: U251 glioblastoma
UACC-257 melanoma = tested on: UACC-257 melanoma
CAKI-1 renal = tested on: CAKI-1 renal
HCC-2998 colon = tested on: HCC-2998 colon
NCI-H522 lung = tested on: NCI-H522 lung
SK-MEL-2 melanoma = tested on: SK-MEL-2 melanoma
HOP-62 NSCLC = tested on: HOP-62 NSCLC
SF-295 CNS = tested on: SF-295 CNS
MCF7 breast = tested on: MCF7 breast
SW-620 colon = tested on: SW-620 colon
NCI-H322M lung = tested on: NCI-H322M lung
MDA-MB-468 breast = tested on: MDA-MB-468 breast
ACHN renal = tested on: ACHN renal
SF-268 CNS = tested on: SF-268 CNS
CCRF-CEM leukemia = tested on: CCRF-CEM leukemia
MDA-MB-435 melanoma = tested on: MDA-MB-435 melanoma
OVCAR-3 ovarian = tested on: OVCAR-3 ovarian
OVCAR-8 ovarian = tested on: OVCAR-8 ovarian
OVCAR-5 ovarian = tested on: OVCAR-5 ovarian
HOP-92 NSCLC = tested on: HOP-92 NSCLC
MALME-3M melanoma = tested on: MALME-3M melanoma
SF-539 CNS = tested on: SF-539 CNS
SR leukemia = tested on: SR leukemia
HL-60(TB) leukemia = tested on: HL-60(TB) leukemia
T-47D breast = tested on: T-47D breast
PC-3 prostate = tested on: PC-3 prostate
COLO 205 colon = tested on: COLO 205 colon
SK-MEL-28 melanoma = tested on: SK-MEL-28 melanoma
SN12C renal = tested on: SN12C renal
BT-549 breast = tested on: BT-549 breast
RPMI-8226 leukemia = tested on: RPMI-8226 leukemia
786-0 renal = tested on: 786-0 renal
KM12 colon = tested on: KM12 colon
HCT-15 colon = tested on: HCT-15 colon
LOX IMVI melanoma = tested on: LOX IMVI melanoma
UO-31 renal = tested on: UO-31 renal
HCT-116 colon = tested on: HCT-116 colon
SNB-19 CNS = tested on: SNB-19 CNS
MDA-MB-231 breast = tested on: MDA-MB-231 breast
RXF 393 renal = tested on: RXF 393 renal
M14 melanoma = tested on: M14 melanoma
NCI-H226 lung = tested on: NCI-H226 lung
SK-OV-3 ovarian = tested on: SK-OV-3 ovarian
HT29 colon = tested on: HT29 colon
A549 NSCLC = tested on: A549 NSCLC
NCI-H23 lung = tested on: NCI-H23 lung
A498 renal = tested on: A498 renal
DU-145 prostate = tested on: DU-145 prostate
K-562 leukemia = tested on: K-562 leukemia
SK-MEL-5 melanoma = tested on: SK-MEL-5 melanoma

For CCN1C(C)(C)CC(Oc2ccc(C(=O)Nc3ccc(NC(=O)Nc4cc(C(C)(C)C)on4)cc3)nc2)CC1(C)C, which GI50 (NCI-H460 NSCLC) is on record?
The GI50 was 1800 nM.

And the TGI (NCI-H460 NSCLC)?
Its TGI is 3240 nM.

What about the GI50 (UACC-62 melanoma) of the same compound?
The GI50 was 1870 nM.

And the TGI (UACC-62 melanoma)?
Its TGI is 3290 nM.

What about the GI50 (MOLT-4 leukemia) of the same compound?
The GI50 was 1670 nM.

And the TGI (MOLT-4 leukemia)?
The TGI was 3060 nM.

What about the GI50 (OVCAR-4 ovarian) of the same compound?
Its GI50 is 1560 nM.

What about the TGI (OVCAR-4 ovarian) of the same compound?
The TGI was 3770 nM.

What about the GI50 (TK-10 renal) of the same compound?
The GI50 was 1920 nM.

And the TGI (TK-10 renal)?
Its TGI is 3870 nM.

And the GI50 (NCI/ADR-RES ovarian)?
The GI50 was 1820 nM.

What about the TGI (NCI/ADR-RES ovarian) of the same compound?
Its TGI is 3720 nM.

What about the GI50 (U251 glioblastoma) of the same compound?
Its GI50 is 1650 nM.

And the TGI (U251 glioblastoma)?
Its TGI is 3030 nM.

What about the GI50 (UACC-257 melanoma) of the same compound?
Its GI50 is 1330 nM.

And the TGI (UACC-257 melanoma)?
Its TGI is 2610 nM.

And the GI50 (CAKI-1 renal)?
The GI50 was 1620 nM.

And the TGI (CAKI-1 renal)?
The TGI was 3220 nM.

And the GI50 (HCC-2998 colon)?
The GI50 was 1600 nM.

And the TGI (HCC-2998 colon)?
The TGI was 2980 nM.

And the GI50 (NCI-H522 lung)?
Its GI50 is 1770 nM.

What about the TGI (NCI-H522 lung) of the same compound?
The TGI was 3160 nM.

What about the GI50 (SK-MEL-2 melanoma) of the same compound?
Its GI50 is 1250 nM.

And the TGI (SK-MEL-2 melanoma)?
The TGI was 2500 nM.

And the GI50 (HOP-62 NSCLC)?
Its GI50 is 1880 nM.

And the TGI (HOP-62 NSCLC)?
The TGI was 3340 nM.

What about the GI50 (SF-295 CNS) of the same compound?
The GI50 was 1840 nM.

And the TGI (SF-295 CNS)?
Its TGI is 3250 nM.

And the GI50 (MCF7 breast)?
Its GI50 is 1550 nM.

What about the TGI (MCF7 breast) of the same compound?
Its TGI is 2910 nM.

And the GI50 (SW-620 colon)?
Its GI50 is 1940 nM.

And the TGI (SW-620 colon)?
The TGI was 3380 nM.

What about the GI50 (NCI-H322M lung) of the same compound?
Its GI50 is 2020 nM.

What about the TGI (NCI-H322M lung) of the same compound?
Its TGI is 4140 nM.

What about the GI50 (MDA-MB-468 breast) of the same compound?
Its GI50 is 2030 nM.

And the TGI (MDA-MB-468 breast)?
The TGI was 3560 nM.

And the GI50 (ACHN renal)?
Its GI50 is 1750 nM.

What about the TGI (ACHN renal) of the same compound?
The TGI was 3200 nM.

And the GI50 (SF-268 CNS)?
The GI50 was 1680 nM.

And the TGI (SF-268 CNS)?
Its TGI is 3110 nM.

And the GI50 (CCRF-CEM leukemia)?
Its GI50 is 1800 nM.

What about the TGI (CCRF-CEM leukemia) of the same compound?
The TGI was 3200 nM.

And the GI50 (MDA-MB-435 melanoma)?
The GI50 was 2000 nM.

And the TGI (MDA-MB-435 melanoma)?
The TGI was 3440 nM.

And the GI50 (OVCAR-3 ovarian)?
The GI50 was 1690 nM.

And the TGI (OVCAR-3 ovarian)?
Its TGI is 3100 nM.

What about the GI50 (OVCAR-8 ovarian) of the same compound?
The GI50 was 1770 nM.

And the TGI (OVCAR-8 ovarian)?
The TGI was 3190 nM.

And the GI50 (OVCAR-5 ovarian)?
Its GI50 is 2080 nM.

And the TGI (OVCAR-5 ovarian)?
Its TGI is 3840 nM.

And the GI50 (HOP-92 NSCLC)?
The GI50 was 1650 nM.

What about the TGI (HOP-92 NSCLC) of the same compound?
Its TGI is 3160 nM.

And the GI50 (MALME-3M melanoma)?
Its GI50 is 1410 nM.

What about the TGI (MALME-3M melanoma) of the same compound?
Its TGI is 2720 nM.

What about the GI50 (SF-539 CNS) of the same compound?
The GI50 was 1300 nM.

What about the TGI (SF-539 CNS) of the same compound?
The TGI was 2580 nM.

What about the GI50 (SR leukemia) of the same compound?
The GI50 was 1290 nM.

What about the TGI (SR leukemia) of the same compound?
Its TGI is 2570 nM.

What about the GI50 (HL-60(TB) leukemia) of the same compound?
Its GI50 is 2510 nM.

What about the TGI (HL-60(TB) leukemia) of the same compound?
The TGI was 5710 nM.

And the GI50 (T-47D breast)?
The GI50 was 1430 nM.

What about the TGI (T-47D breast) of the same compound?
Its TGI is 2790 nM.

What about the GI50 (PC-3 prostate) of the same compound?
The GI50 was 1950 nM.

What about the TGI (PC-3 prostate) of the same compound?
The TGI was 3500 nM.

What about the GI50 (COLO 205 colon) of the same compound?
The GI50 was 1790 nM.

What about the TGI (COLO 205 colon) of the same compound?
Its TGI is 3200 nM.

What about the GI50 (SK-MEL-28 melanoma) of the same compound?
Its GI50 is 1580 nM.

And the TGI (SK-MEL-28 melanoma)?
The TGI was 2940 nM.

What about the GI50 (SN12C renal) of the same compound?
Its GI50 is 1710 nM.

And the TGI (SN12C renal)?
The TGI was 3090 nM.

What about the GI50 (BT-549 breast) of the same compound?
Its GI50 is 1550 nM.

And the TGI (BT-549 breast)?
The TGI was 2900 nM.

What about the GI50 (RPMI-8226 leukemia) of the same compound?
The GI50 was 654 nM.

And the TGI (RPMI-8226 leukemia)?
The TGI was 1750 nM.

And the GI50 ([…]-0 renal)?
The GI50 was 1520 nM.

And the TGI (786-0 renal)?
Its TGI is 2870 nM.

What about the GI50 (KM12 colon) of the same compound?
The GI50 was 1740 nM.

What about the TGI (KM12 colon) of the same compound?
Its TGI is 3140 nM.

And the GI50 (HCT-15 colon)?
Its GI50 is 1610 nM.

And the TGI (HCT-15 colon)?
The TGI was 2990 nM.

What about the GI50 (LOX IMVI melanoma) of the same compound?
Its GI50 is 1860 nM.

What about the TGI (LOX IMVI melanoma) of the same compound?
The TGI was 3270 nM.

And the GI50 (UO-31 renal)?
Its GI50 is 1760 nM.

What about the TGI (UO-31 renal) of the same compound?
Its TGI is 3210 nM.

What about the GI50 (HCT-116 colon) of the same compound?
The GI50 was 1630 nM.

What about the TGI (HCT-116 colon) of the same compound?
The TGI was 3010 nM.

And the GI50 (SNB-19 CNS)?
The GI50 was 1980 nM.

And the TGI (SNB-19 CNS)?
Its TGI is 3480 nM.

And the GI50 (MDA-MB-231 breast)?
The GI50 was 1770 nM.

And the TGI (MDA-MB-231 breast)?
The TGI was 3230 nM.

And the GI50 (RXF 393 renal)?
Its GI50 is 384 nM.

What about the TGI (RXF 393 renal) of the same compound?
The TGI was 1470 nM.

And the GI50 (M14 melanoma)?
Its GI50 is 1710 nM.

What about the TGI (M14 melanoma) of the same compound?
The TGI was 3090 nM.

And the GI50 (NCI-H226 lung)?
Its GI50 is 1680 nM.

What about the TGI (NCI-H226 lung) of the same compound?
Its TGI is 3080 nM.

And the GI50 (SK-OV-3 ovarian)?
The GI50 was 1710 nM.

What about the TGI (SK-OV-3 ovarian) of the same compound?
The TGI was 3100 nM.

And the GI50 (HT29 colon)?
The GI50 was 832 nM.

And the TGI (HT29 colon)?
Its TGI is 2090 nM.

And the GI50 (A549 NSCLC)?
The GI50 was 1830 nM.

And the TGI (A549 NSCLC)?
The TGI was 3320 nM.

And the GI50 (NCI-H23 lung)?
Its GI50 is 3330 nM.

And the TGI (NCI-H23 lung)?
Its TGI is 8850 nM.

What about the GI50 (A498 renal) of the same compound?
Its GI50 is 1600 nM.

What about the TGI (A498 renal) of the same compound?
The TGI was 3020 nM.

And the GI50 (DU-145 prostate)?
The GI50 was 1880 nM.

And the TGI (DU-145 prostate)?
Its TGI is 3490 nM.

What about the GI50 (K-562 leukemia) of the same compound?
The GI50 was 1600 nM.

And the TGI (K-562 leukemia)?
Its TGI is 2970 nM.

And the GI50 (SK-MEL-5 melanoma)?
The GI50 was 1520 nM.

And the TGI (SK-MEL-5 melanoma)?
Its TGI is 2860 nM.
